Measurements taken from patent US10519177B2, “Heterocyclic compounds and uses thereof” (Plexxikon Inc., priority 2013, dated 2019).

Each molecule was assayed on MV-4-11 cells (assay: Oncology cell growth assay MV-4-11 (CellTiter Glo)). Details: Homo sapiens, MV4-11, 72 h; MV-4-11, 3d growth; read-out: Cell activity (IC50 μM) MV-4-11 3d-Growth.
Assay type: cell-based
From the text: Published bromodomain inhibitors JQ1 and iBET 151 have shown activity in variety of cancer cells such leukemia and lymphoma, multiple myeloma cells, NUT midline carcinoma and glioblastoma cells (Dawson M A et al. 2011; Delmore J E 2011; Chen Z et al. 2013; Filippakopoulos P et al. 2010; Mertz J A et al. 2011; Ott C J et al. 2012). In this study, we test compounds in different cancer cell lines. MV-4-11 and MOLM-13 are AML cell lines harboring a MLL-AF4 and MLL-AF9 translocation, respectively. MM.1S is a multiple myeloma cell line. SK-N-AS, IMR-32 and SK-N-BE(2) are neuroblastoma cell lines. IMR-32 and SK-N-BE(2) cell lines harbor MYCN amplifications.
MV-4-11, MM.1S, IMR-32, SK-N-AS and SK-N-BE(2) were obtained from ATCC (IL, USA) and MOLM-13 were purchased from DSMZ (Braunschweig, German). Cells are cultured as recommended by their sources. For growth inhibition studies 3000 cells are seeded in wells of a 96-well plate in 75 μL of culture media. After several hours, growth media containing compounds of formula (I) are added to the wells. Compound at a maximal concentration of 5 mM was serially diluted 1:3 for a total of 8 point titration with DMSO as a control. A 1 μL aliquot of each dilution point is added to 249 μL growth media and 75 μL is added to each well containing cells, providing 10 μM compound at the maximum concentration point. The final concentration of DMSO in all wells is 0.2%. Cells are incubated for 72 hours, and 25 μL of CellTiter Glo Reagent (Promega GA, USA) is added to each well. Plates are shaken for approximately 10 minutes and chemiluminescent signal is read on Tecan microplate reader. The measured luminescence correlates directly with cell number.
All data is normalized to the mean of eight DMSO high control wells on each plate. A four parameter curve fit of the following formula was then applied: Y=a+(b−a)/(1+(x/c)^d) Where ‘a’ is the minimum, ‘b’ is the maximum, ‘c’ is the pIC50 and ‘d’ is the Hill slope. […] Myc Reporter Assay

Row | IC50 | SMILES
1 | < 1 µM | [2H]c1c([2H])c([2H])c(C([2H])(n2cc(-c3cnn(CC(F)(F)F)c3)c3ncc(-c4c(C)noc4C)cc32)C([2H])([2H])[2H])c([2H])c1[2H] (stereo not drawn) [P-0606]

What follows are molecules tested on bromodomain (assay: at least one of the bromodomain cell assays of Example 57). Details: at least one of the bromodomain cell assays described in Example 57; read-out: IC50 in at least one of the bromodomain cell assays.
Assay type: cell-based

Row | SMILES | IC50
2 | [2H]c1c([2H])c([2H])c(C([2H])(n2cc(-c3cnn(CC(F)(F)F)c3)c3ncc(-c4c(C)noc4C)cc32)C([2H])([2H])[2H])c([2H])c1[2H] (stereo not drawn) [P-0606] | < 10 µM
3 | Cc1noc(C)c1-c1cnc2c(-c3ccc(C(=O)O)cc3)cn(CC3CC4CC4C3)c2c1 (stereo not drawn) [P-0621, 4-[1-(3-bicyclo[3.1.0]hexanylmethyl)-6-(3,5-dimethylisoxazol-4-yl)pyrrolo[3,2-b]pyridin-3-yl]benzoic acid] | < 10 µM
4 | Cc1noc(C)c1-c1cnc2c(-c3ccc(C(=O)O)cc3)cn(C(c3ccccc3)c3ccccn3)c2c1 (stereo not drawn) [P-0611, 4-[6-(3,5-dimethylisoxazol-4-yl)-1-[phenyl(2-pyridyl)methyl]pyrrolo[3,2-b]pyridin-3-yl]benzoic acid] | < 10 µM
5 | Cc1noc(C)c1-c1cnc2c(-c3ccc(C4(C(=O)O)CC4)cc3)cn(CC3CCCCC3)c2c1 [P-0702, 1-[4-[1-(cyclohexylmethyl)-6-(3,5-dimethylisoxazol-4-yl)pyrrolo[3,2-b]pyridin-3-yl]phenyl]cyclopropanecarboxylic acid] | < 10 µM
6 | Cc1noc(C)c1-c1cnc2c(-c3ccc(CO)cc3)cn(CC3CCCCC3)c2c1 [P-0704, [4-[1-(cyclohexylmethyl)-6-(3,5-dimethylisoxazol-4-yl)pyrrolo[3,2-b]pyridin-3-yl]phenyl]methanol] | < 10 µM
7 | Cc1noc(C)c1-c1cnc2c(-c3ccc(C(C)(C)C(=O)O)cc3)cn(CC3CCCCC3)c2c1 [P-0703, 2-[4-[1-(cyclohexylmethyl)-6-(3,5-dimethylisoxazol-4-yl)pyrrolo[3,2-b]pyridin-3-yl]phenyl]-2-methyl-propanoic acid] | < 10 µM
8 | Cc1ccc(-c2cn(CC3CCCCC3)c3cc(-c4c(C)noc4C)cnc23)cc1 [P-0622] | < 10 µM
9 | Cc1noc(C)c1-c1cnc2c(-c3ccc(CO)cc3)cn([C@@H](c3ccccc3)c3ccccn3)c2c1 [P-0713, [4-[6-(3,5-dimethylisoxazol-4-yl)-1-[(S)-phenyl(2-pyridyl)methyl]pyrrolo[3,2-b]pyridin-3-yl]phenyl]methanol] | < 10 µM
10 | Cc1noc(C)c1-c1cnc2c(-c3ccc(C4(C(=O)O)CC4)cc3)cn(CC3(C)CCOCC3)c2c1 [P-0777, 1-[4-[6-(3,5-dimethylisoxazol-4-yl)-1-[(4-methyltetrahydropyran-4-yl)methyl]pyrrolo[3,2-b]pyridin-3-yl]phenyl]cyclopropanecarboxylic acid] | < 10 µM
11 | Cc1noc(C)c1-c1cnc2c(-c3ccc(B(O)O)cc3)cn([C@@H](c3ccccc3)c3ccccn3)c2c1 [P-0718, [4-[6-(3,5-dimethylisoxazol-4-yl)-1-[(S)-phenyl(2-pyridyl)methyl]pyrrolo[3,2-b]pyridin-3-yl]phenyl]boronic acid] | < 10 µM
12 | Cc1noc(C)c1-c1cnc2c(F)cn([C@@H](c3ccccc3)c3ccccn3)c2c1 [P-0712, 4-[3-fluoro-1-[(S)-phenyl(2-pyridyl)methyl]pyrrolo[3,2-b]pyridin-6-yl]-3,5-dimethyl-isoxazole] | < 10 µM
13 | COC(=O)c1ccc(-c2cn([C@@H](c3ccccc3)c3ccccn3)c3cc(-c4c(C)noc4C)cnc23)cc1 [P-0715, methyl 4-[6-(3,5-dimethylisoxazol-4-yl)-1-[(S)-phenyl(2-pyridyl)methyl]pyrrolo[3,2-b]pyridin-3-yl]benzoate] | < 10 µM
14 | COC(=O)c1ccc(-c2cn(C(c3ccccc3)c3ccccc3)c3cc(-c4c(C)noc4C)cnc23)cc1 [P-0617, methyl 4-[1-benzhydryl-6-(3,5-dimethylisoxazol-4-yl)pyrrolo[3,2-b]pyridin-3-yl]benzoate] | < 10 µM

The next lines start with the values.

Row | IC50 | SMILES
15 | < 10 µM | Cc1noc(C)c1-c1cnc2c(-c3ccc(C(=O)O)cc3)cn(CC3(C)COC3)c2c1 [P-0767, 4-[6-(3,5-dimethylisoxazol-4-yl)-1-[(3-methyloxetan-3-yl)methyl]pyrrolo[3,2-b]pyridin-3-yl]benzoic acid]
16 | < 10 µM | Cc1cc(-c2ccc3c(-c4ccc(C(=O)O)cc4)cn(CC4CCCCC4)c3c2)cn(C)c1=O [P-0760, 4-[1-(cyclohexylmethyl)-6-(1,5-dimethyl-6-oxo-3-pyridyl)indol-3-yl]benzoic acid]
17 | < 10 µM | Cc1noc(C)c1-c1cnc2c(-c3ccc(C(=O)OC(C)C)cc3)cn([C@H](c3ccccc3)c3ccccn3)c2c1 [P-0728, isopropyl 4-[6-(3,5-dimethylisoxazol-4-yl)-1-[(R)-phenyl(2-pyridyl)methyl]pyrrolo[3,2-b]pyridin-3-yl]benzoate]
18 | < 10 µM | Cc1noc(C)c1-c1cnc2c(-c3ccc(C4(C(=O)O)CC4)cc3)cn(CC3(C)CCCCC3)c2c1 [P-0782, 1-[4-[6-(3,5-dimethylisoxazol-4-yl)-1-[(1-methylcyclohexyl)methyl]pyrrolo[3,2-b]pyridin-3-yl]phenyl]cyclopropanecarboxylic acid]
19 | < 10 µM | Cc1cc(-c2cnc3c(-c4ccc(C(=O)O)cc4)cn(CC4CCCCC4)c3c2)cn(C)c1=O [P-0759, 4-[1-(cyclohexylmethyl)-6-(1,5-dimethyl-6-oxo-3-pyridyl)pyrrolo[3,2-b]pyridin-3-yl]benzoic acid]
20 | < 10 µM | Cc1nnn(C)c1-c1cnc2c(-c3ccc(C(C)(C)C)cc3)cn(CC3CCC(F)(F)CC3)c2c1 [P-0810, 3-(4-tert-butylphenyl)-1-[(4,4-difluorocyclohexyl)methyl]-6-(3,5-dimethyltriazol-4-yl)pyrrolo[3,2-b]pyridine]
21 | < 10 µM | COC(=O)c1ccc(-c2cn([C@H](c3ccccc3)c3ccccn3)c3cc(-c4c(C)noc4C)cnc23)cc1 [P-0726, methyl 4-[6-(3,5-dimethylisoxazol-4-yl)-1-[(R)-phenyl(2-pyridyl)methyl]pyrrolo[3,2-b]pyridin-3-yl]benzoate]
22 | < 10 µM | Cc1noc(C)c1-c1cnc2[nH]cc(C(c3ccccn3)c3ccccn3)c2c1 [P-0733, 4-[3-[bis(2-pyridyl)methyl]-1H-pyrrolo[2,3-b]pyridin-5-yl]-3,5-dimethyl-isoxazole]
23 | < 10 µM | Cc1ccc(-c2cn([C@H](c3ccccn3)C3CCCC3)c3cc(-c4c(C)noc4C)cnc23)cc1 [P-0822, 4-[1-[(S)-cyclopentyl(2-pyridyl)methyl]-3-(p-tolyl)pyrrolo[3,2-b]pyridin-6-yl]-3,5-dimethyl-isoxazole]
24 | < 10 µM | Cc1ccc(-c2cn([C@H](c3ccccc3)c3ccccn3)c3cc(-c4c(C)noc4C)cnc23)cc1 [P-0725, 3,5-dimethyl-4-[1-[(R)-phenyl(2-pyridyl)methyl]-3-(p-tolyl)pyrrolo[3,2-b]pyridin-6-yl]isoxazole]
25 | < 10 µM | Cc1noc(C)c1-c1cnc2c(-c3ccc(C(=O)O)cc3)cn([C@H](c3ccccn3)C3CCCC3)c2c1 [P-0819, 4-[1-[(S)-cyclopentyl(2-pyridyl)methyl]-6-(3,5-dimethylisoxazol-4-yl)pyrrolo[3,2-b]pyridin-3-yl]benzoic acid]
26 | < 10 µM | Cc1noc(C)c1-c1cnc2c(-c3ccc4c(c3)OC(=O)C4)cn(CC3CCC(F)(F)CC3)c2c1 [P-0800, 6-[1-[(4,4-difluorocyclohexyl)methyl]-6-(3,5-dimethylisoxazol-4-yl)pyrrolo[3,2-b]pyridin-3-yl]-3H-benzofuran-2-one]
27 | < 10 µM | Cc1noc(C)c1-c1cnc2c(-c3ccc(C(=O)O)cc3)cn([C@@H](c3ccccn3)C3CCCCC3)c2c1 [P-0816, 4-[1-[(R)-cyclohexyl(2-pyridyl)methyl]-6-(3,5-dimethy7lisoxazol-4-yl)pyrrolo[3,2-b]pyridin-3-yl]benzoic acid]
28 | < 10 µM | Cc1noc(C)c1-c1cnc2c(F)cn([C@H](c3ccccc3)c3ccccn3)c2c1 [P-0723, 4-[3-fluoro-1-[(R)-phenyl(2-pyridyl)methyl]pyrrolo[3,2-b]pyridin-6-yl]-3,5-dimethyl-isoxazole]
29 | < 10 µM | Cc1cc(-c2ccc3c(-c4ccc(C(=O)O)cc4)cn([C@@H](C)c4ccccn4)c3c2)cn(C)c1=O [P-0762, 4-[6-(1,5-dimethyl-6-oxo-3-pyridyl)-1-[(1S)-1-(2-pyridyl)ethyl]indol-3-yl]benzoic acid]
30 | < 10 µM | Cc1noc(C)c1-c1cnc2c(-c3ccc([N+](=O)[O-])nc3)cn([C@H](c3ccccc3)c3ccccn3)c2c1 [P-0730, 3,5-dimethyl-4-[3-(6-nitro-3-pyridyl)-1-[(R)-phenyl(2-pyridyl)methyl]pyrrolo[3,2-b]pyridin-6-yl]isoxazole]
